US9303069B2, “Peptides for treating cancer” (University of Mississippi Medical Center, priority 2014, dated 2016)
Where two headings read alike, the source gives them in different places.

Columns and labels:
SKOV3 tumors = assay: In vivo efficacy on established SKOV3 tumors; parameters: species or system mice; settings: day 16; cisplatin 5 mg/kg i.p., IRIS peptide 10 mg/kg i.t., every third day, four times
Description: Further, to determine whether IRIS peptide could have any efficacy in vivo and/or whether it sensitizes ovarian tumors to low, clinically relevant concentrations of cisplatin, four sets of nude mice (n=6 each) were subcutaneously injected with SKOV3 cells. Ten days later, when tumors were ˜250 mm^3 in volume, one group was treated with controls (i.e. DMSO delivered i.p. and scrambled peptide delivered directly into the tumors, i.t.), a second group was treated with cisplatin (5 mg/kg, delivered i.p.), a third group was treated with IRIS peptide (10 mg/kg, injected i.t.), and a fourth group was treated with both. Treatments were delivered every third day for a total of four times. For the next 16 days, tumors were measured daily with a caliper. Mice were then sacrificed, and their tumors or their remnants were taken.
Efficacy of BRCA1-IRIS inhibitory peptide, in vivo. Six to eight week old female athymic SCID mice were injected subcutaneously with 2.5×10^6 SKOV3 cells in the flank region. Their respective tumor growth was measured with a caliper. When the tumor volume reached 250 mm^3, mice were randomly grouped into four groups. One group (control) was treated with scrambled peptide (10 mg/kg) and DMSO. A second was treated with BRCA1-IRIS inhibitory peptide (10 mg/kg, body weight). […] Change in tumor volume was measured to monitor the efficacy of the treatment. […]

SKOV3 cells = type: cell-based, human; settings: then cisplatin 24 hours, read-out: IC50 of cisplatin (survival)
Description: Thus, a peptide (hereafter IRIS peptide) composed of a cell/nucleus penetrating signal (FIG. 26) fused to BRCA1-IRIS intron 11 (FIG. 26) was synthesized. Equal numbers of HOSE, HOSE/IRIS, SKOV3, OVCAR3, OVCAR420 and OV-90 cells were grown in the presence of increasing concentrations of IRIS peptide for 48 hours.
To investigate the contribution of ErbB2 and TrkB to BRCA1-IRIS-induced cisplatin resistance, equal numbers of SKOV3 cells were either depleted from BRCA1-IRIS, ErbB2 or TrkB using specific siRNAs for 48 hours before they were (i) exposed to increasing concentrations of cisplatin for another 24 hours or (ii) exposed to IRIS peptide, ErbB2 inhibitor (CP-724714), TrkB inhibitor (K252a) or both for 24 hours, before they were exposed to increasing concentrations of cisplatin for another 24 hours.
Cell viability measurement. Cell viability under different experimental conditions was determined using the MTS assay […]. Briefly, SKOV3, OVACAR3, HOSE and HOSE/IRIS cells (2.5×10^4 cells per well) were seeded in 96 well plates and incubated overnight at 37° C. in 10% humidified CO2 atmosphere in varying concentrations of IRIS peptide, or inhibitors of ErbB2 (CP-724714), EGFR (Erlotinib), TrkB (K252a), JNK (SP600125), p38 (SB203580), ERK (PD98059) and PI3′K/AKT (LY294002) inhibitors for 24 hours at 37° C. Cell Titer 96® Aqueous (Promega, Madison, Wis., USA) was used to measure viability following manufactures instructions. Cell viability (%) was expressed as a ratio to control cells×100. Growth inhibition was also determined by manually counting cells in five different microscopic fields. Change in cell numbers (fold) was expressed as a ratio to control cells×100. All experiments were done in at least triplicates, three different times. * is p≦0.05, ** is p≦0.001 and *** is p≦0.0001.
Transfections of siRNA. siRNAs for human ErbB2 and TrkB were purchased from Ambion and Santa Cruz Biotechnology, USA. Custom synthesized siRNA against BRCA1 IRIS was used. siRNA against luciferase gene was used as the negative control. Sub-confluent cells were transfected in 6- or 96-well plates with ErbB2 (100 nM), TrkB (100 nM), BRCA1 IRIS (200 nM) or control siRNA using Oligofectamine™ reagent (GibcoBRL Inc, USA) following the instructions of the manufacturer. Protein expression was tested by Western blot after 72 hours of siRNA transfection. Cell viability was evaluated by MTS or by manual counting after 72 hours of siRNA exposure alone or in combination with cisplatin exposure (for an additional 24 hours).

BRCA1-IRIS = BRCA1-IRIS expression in ovarian cells (Western analysis); type: cell-based, human; settings: 10, 20 or 30 μM of cisplatin for 24 hours
From the text: At these low concentrations of cisplatin BRCA1-IRIS expression was induced in HOSE cells and remained high in HOSE/IRIS cells (FIG. 17). […] Cell lines expressing the lowest levels of BRCA1-IRIS (i.e.

BRCA1-IRIS and survivin = assay: IHC of SKOV3 tumors for BRCA1-IRIS and survivin; type: in vivo, mice; settings: SKOV3 tumors after treatment
From the text: Isolated tumors were mounted, sectioned and IHC stained for BRCA1-IRIS and survivin. […] It is possible that SKOV3 contain a heterogeneous population of cells that differ in their BRCA1-IRIS expression and thus that the remaining tumors are from those expressing no or low BRCA1-IRIS.
Immunohistochemistry (IHC). Ovarian tissue microarrays comprised of normal, cancer and metastatic tissues were purchased from US Biomax, Inc. Paraffin-embedded tissue sections were de-waxed in xylene and rehydrated in alcohol. Antigen-retrieval for FOXO3a and survivin was performed by heating the slides in citrate buffer (10 μM, pH 6.0) using microwave for 10 minutes. Slides were then cooled to room temperature (RT) and washed with water followed by PBS for 15 minutes each. Antigen-retrieval for BRCA1-IRIS was performed by incubating the slides in pepsin (10 μM) for 20 minutes at 37° C. Endogenous peroxidase activity was suppressed by treating the slides with 3% hydrogen peroxide for 10 minutes. After washing steps slides were incubated for 1 hour at room temperature with antibodies to human FOXO3a (Cell Signaling Technology, USA 1:400) and survivin (Cell Signaling Technology, USA 1:400). For BRCA1-IRIS staining, slides were incubated overnight at 4° C. with monoclonal BRCA1-IRIS antibody at a 1:75 dilution. […]

[1] = test system: BRCA1-IRIS, TrkB, ErbB2, AKT, p-AKT, p-FOXO, Cyclin D1, Bcl-2 and survivin; assay: Expression of growth and survival proteins in HOSE and HOSE/IRIS cells (Western); type: cell-based, human; settings: IRIS peptide 5 μM, cisplatin 10 μM, combination 2.5 μM IRIS peptide + 5 μM cisplatin
From the text: HOSE cells overexpressing IRIS show a higher degree of resistance to cisplatin than HOSE cells (compare blue to black line in FIG. 30).

**Q.** Which results are given for N.N.[Cl][Pt][Cl] [cisplatin]?
**A.** reduction in tumor size (SKOV3 tumors): ~40%; IC50 (SKOV3 cells; SKOV3, BRCA1-IRIS silencing (siRNA) 48 hours): ~2.5 µM; IC50 (SKOV3 cells; SKOV3, ErbB2 inhibitor (CP-724714) 24 hours): ~30 µM; IC50 (SKOV3 cells; SKOV3, IRIS peptide 24 hours): ~7.5 µM; IC50 (SKOV3 cells; SKOV3, TrkB inhibitor (K252a) 24 hours): ~50 µM; IC50 (SKOV3 cells; SKOV3, siErbB2 transfected 48 hours): ~7.5 µM; IC50 (SKOV3 cells; SKOV3, siLuc transfected 48 hours): > 50 µM; IC50 (SKOV3 cells; SKOV3, siTrkB transfected 48 hours): ~20 µM; IC50 (SKOV3 cells; SKOV3, vehicle treated 24 hours): > 50 µM; BRCA1-IRIS expression in HOSE cells (BRCA1-IRIS): induced; BRCA1-IRIS and survivin staining of remaining tumor (BRCA1-IRIS and survivin): increased IRIS and survivin expression; expression of BRCA1-IRIS, TrkB, ErbB2, AKT, p-AKT, p-FOXO, Cyclin D1, Bcl-2 and survivin [1]: increased expression
